# Results reported in PMC11594608, “Sulfonamide-Based Inhibition of the β-Carbonic Anhydrase from A. baumannii, a Multidrug-Resistant Bacterium” (International Journal of Molecular Sciences, 2024).
# Where two headings read alike, the source gives them in different places.
# Tests used:
# βAbauCA (CanB) = target: T1, βAbauCA (CanB) (Acinetobacter baumannii, UniProt A0A7U3Y636); test: stopped-flow CO2 hydrase assay; assay type: biochemical; details: CO2 substrate, […] TRIS pH […] NaClO4, […] °C, […] min preincubation
# T1 construct: gene AB57_1063; oligomer not determined here
# T1 sequence (A0A7U3Y636 1-204): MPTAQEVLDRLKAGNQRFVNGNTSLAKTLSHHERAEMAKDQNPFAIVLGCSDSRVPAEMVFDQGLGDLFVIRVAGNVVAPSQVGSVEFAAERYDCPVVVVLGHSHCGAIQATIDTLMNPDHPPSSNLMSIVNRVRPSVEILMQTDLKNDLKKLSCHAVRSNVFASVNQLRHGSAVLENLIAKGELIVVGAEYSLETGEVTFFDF
# hCA I = target: T2, hCA I (Homo sapiens, UniProt P00915); test: stopped-flow CO2 hydrase assay; assay type: biochemical; details: read-out: KI (nM) ^a / CA I
# T2 construct: gene CA1
# T2 sequence (P00915 2-261): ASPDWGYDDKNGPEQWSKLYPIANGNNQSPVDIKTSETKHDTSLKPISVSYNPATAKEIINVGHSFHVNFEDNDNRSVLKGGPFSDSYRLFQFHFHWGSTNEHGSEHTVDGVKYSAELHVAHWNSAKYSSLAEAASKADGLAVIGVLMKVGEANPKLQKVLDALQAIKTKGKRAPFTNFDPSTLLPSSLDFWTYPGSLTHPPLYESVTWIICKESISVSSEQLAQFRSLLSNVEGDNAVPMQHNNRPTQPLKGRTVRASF
Compound,Ki (βAbauCA (CanB)) [nM],also measured
"Nc1cc(C(F)(F)F)c(S(N)(=O)=O)cc1S(N)(=O)=O [compound 11, 11]",928,–
"CC(=O)Nc1nnc(S(N)(=O)=O)s1 [AAZ, 5-acetamido-1,3,4-thiadia-zole-2-sulphonamide]",191,–
CCN1CCCC1CNC(=O)c1cc(S(N)(=O)=O)ccc1OC (stereo not shown) [SLP],6860,–
"NS(=O)(=O)c1ccc(C(=O)O)cc1 [compound 18, 18]",547,–
"NS(=O)(=O)c1ccc(O)cc1 [compound 15, 15]",625,–
NS(=O)(=O)c1cc2c(cc1Cl)NCNS2(=O)=O [HCT],875,–
"Nc1ccc(S(=O)(=O)NCc2ccc(S(N)(=O)=O)cc2)cc1 [compound 23, 23]",317,–
"CCN[C@H]1CN(CCCOC)S(=O)(=O)c2sc(S(N)(=O)=O)cc21 [BRZ, Brinzolamide]",170,–
"CC1(C)O[C@@H]2[C@@H](CO[C@@]3(COS(N)(=O)=O)OC(C)(C)O[C@@H]23)O1 [TPM, topiramate]",2770,–
"Cc1ccc(S(N)(=O)=O)cc1 [compound 4, 4]",1480,Ki (hCA I): 78500 nM
Cc1onc(-c2ccccc2)c1-c1ccc(S(N)(=O)=O)cc1 [VLX],215,–
"Nc1cc(Cl)c(S(N)(=O)=O)cc1S(N)(=O)=O [compound 12, 12]",1200,–
"Cn1nc(S(N)(=O)=O)sc1=N [compound 14, 14]",604,–
"Nc1ccc(S(=O)(=O)Nc2nnc(S(N)(=O)=O)s2)cc1 [compound 20, 20]",344,–
Cc1ccc(-c2cc(C(F)(F)F)nn2-c2ccc(S(N)(=O)=O)cc2)cc1 [CLX],270,–
"Nc1nnc(S(N)(=O)=O)s1 [compound 13, 13]",444,–
"NS(=O)(=O)c1nnc(NS(=O)(=O)c2ccccc2)s1 [BZA, Benzolamide]",113,–
"Nc1ccc(S(=O)(=O)Nc2ccc(S(N)(=O)=O)cc2)cc1 [compound 22, 22]",276,–
"NS(=O)(=O)c1ccc(CO)cc1 [compound 16, 16]",700,–
NS(=O)(=O)Cc1noc2ccccc12 [ZNS],2340,–
"Nc1ccc(S(=O)(=O)NCCc2ccc(S(N)(=O)=O)cc2)cc1 [compound 24, 24]",326,–
"Nc1nccc(Nc2ccc(S(N)(=O)=O)cc2)n1 [compound 19, 19]",407,–
NS(=O)(=O)c1ccc(N2CCCCS2(=O)=O)cc1 [SLT],542,–
"NS(=O)(=O)c1ccc(CCO)cc1 [compound 17, 17]",715,–
"NS(=O)(=O)c1cc(Cl)cc(Cl)c1O [compound 10, 10]",4160,–
O=C1NS(=O)(=O)c2ccccc21 [SAC],7490,–
NS(=O)(=O)c1cc(Cl)c(Cl)c(S(N)(=O)=O)c1 [DCP],472,–
CC(=O)N=c1sc(S(N)(=O)=O)nn1C [MZA],249,–
"NS(=O)(=O)c1cccc(S(N)(=O)=O)c1 [compound 3, 3]",–,"Ki (hCA I; CO2 substrate, […] HEPES pH […] °C, […] min preincubation): 79 nM"
CCN[C@H]1C[C@H](C)S(=O)(=O)c2sc(S(N)(=O)=O)cc21 [DZA],232,–
